From paper PMC10743653, “Combined In Silico and In Vitro Analyses to Assess the Anticancer Potential of Thiazolidinedione–Thiosemicarbazone Hybrid Molecules” (International Journal of Molecular Sciences, 2023)

What was measured:
T98G cells = test: MTT assay, T98G; assay type: cell-based, human; settings: for IC50: Homo sapiens, T98G, MTT, 24 h treatment, mean ± SD; for SI (selectivity index): IC50 CCD 841 CoTr divided by IC50 T98G
Procedure: (§1) The effects of TZD–TSCs 2–5 on the cellular viability of a panel of cell lines were investigated through an 3-(4,5-dimethylthiazol-2-yl)-2,5-diphenyl-2H-tetrazolium bromide (MTT) assay, following a 24 h treatment with the compounds. The panel consisted of three solid tumor cells: T98G (glioblastoma multiforme), HepG2 (hepatocellular carcinoma, epithelial), and HT29 (colon adenocarcinoma, epithelial), as well as noncancerous cells CCD 841 CoTr (normal colon, epithelial).
(§2) Primary single dose screenings of TZD–TSCs 2–5 were performed at a concentration of 200 μg/mL, and those that elicited a greater than 80% inhibition of cell proliferation were analyzed at several concentrations, to find their half-maximal inhibitory concentration (IC50). The IC50 values, reported as the mean ± SD in Table 2, indicate the concentration of the tested compound that inhibits the growth/viability of the cancer cell population by 50%. In this specific case of an MTT assay, which measures the activity of mitochondrial dehydrogenases (as an indicator of cell viability), the IC50 values stand for the concentration that inhibits the metabolic activity of cells by 50%.
(§3) Human colon adenocarcinoma cells, HT29 (ATCC no. HTB-38), derived from a grade I tumor, were cultured in roswell park memorial institute Medium (RPMI) 1640 medium, supplemented with 10% fetal calf serum (FCS) (GibcoTM, Paisley, UK) and antibiotics (100 U/mL penicillin and 100 μg/mL streptomycin) (Sigma, St. Louis, MO), at 37 °C in a humidified atmosphere with 5% CO2. Human normal colon epithelial cells, CCD 841 CoTr (ATCC no. CRL-1807), were cultured in RPMI 1640 + dulbecco’s modified eagle medium (DMEM) (1:1) medium (Sigma, St. Louis, MO), supplemented with 10% FCS and antibiotics, at 34 °C in a 5% CO2/95% air atmosphere. Human glioblastoma T98G cells were cultured in Dulbecco’s Modified Eagle’s Medium (DMEM) (Sigma Aldrich, St. Louis, MO, USA), supplemented with 10% fetal bovine serum (FBS), penicillin (100 U/mL), and streptomycin (100 μg/mL). Human hepatocellular carcinoma cells, HepG2, were maintained in Eagle’s Minimum Essential Medium, supplemented with 10% FBS, penicillin (100 U/mL), and streptomycin (100 μg/mL).
(§4) After 24 h of incubation of the cells with the tested compounds in 100 μL of culture medium, MTT solution (5 mg/mL, 25 μL/well) was added and incubated for an additional 3 h. The purple crystals of formazan which formed in the medium were solubilized overnight in 10% sodium dodecyl sulphate (SDS) in a 0.01 M HCl mixture. The product was quantified spectrophotometrically by measuring its absorbance at 570 nm using an Emax Microplate Reader (Molecular Devices Corporation, Menlo Park, CA, USA).

HepG2 cells = test: MTT assay, HepG2; assay type: cell-based, human; settings: for IC50: Homo sapiens, HepG2, MTT, 24 h treatment, mean ± SD; for SI (selectivity index): IC50 CCD 841 CoTr divided by IC50 HepG2
Procedure: as §1, §2, §3, §4

HT29 cells [1] = test: MTT assay, HT29; assay type: cell-based, human; settings: for IC50: Homo sapiens, HT-29, HT29, MTT, 24 h treatment, mean ± SD; for SI (selectivity index): IC50 CCD 841 CoTr divided by IC50 HT29
Procedure: as §1, §2, §3, §4

CCD 841 CoTr cells [2] = test: MTT assay, normal colon epithelial cells; assay type: cell-based; settings: Homo sapiens, CCD 841 CoTr (noncancerous), 24 h treatment, mean ± SD
Procedure: as §1, §2, §3, §4

CCD 841 CoTr cells [3] = test: Nitric oxide measurement (Griess), CCD 841 CoTr; assay type: cell-based, human; settings: 200 μg/mL
Procedure: (§5) Nitrate, i.e., a stable end product of NO, was measured in culture supernatants with a spectrophotometric method based on the Griess reaction. Culture supernatants were collected from the cell cultures treated with specific concentrations of the tested compounds (25, 75, 150, and 200 μg/mL, respectively). Briefly, 100 μL of the culture supernatant was placed in 96-well flat-bottomed plates in triplicate and incubated with 100 μL of Griess reagent (1% sulfanilamide/0.1% N-(1-naphthyl)ethylenediamine dihydrochloride) in 3% H3PO4 at room temperature for 10 min. The optical density was measured at 550 nm using a microplate reader. A standard curve was prepared using 0.5–25 μM sodium nitrite (NaNO2) for calibration.

HT29 cells [4] = test: Nitric oxide measurement (Griess), HT29; assay type: cell-based, human
Procedure: as §5

[5] = DPPH free radical scavenging test
From the text: (§6) Antioxidant activity is a complex procedure, usually happening through several multiple or predominant chemical mechanisms (i.e., hydrogen atom transfer (HAT), single electron transfer (SET), and the ability to chelate transition metals), and it is influenced by many factors, which cannot be fully described with one single method. Therefore, it is important to perform more than one type of measurement to take into account the various mechanisms of antioxidant action. In this study, to assess the antioxidant activity of TZD–TSCs 2–5, two complementary tests were used: a DPPH (2,2-diphenyl-1-picrylhydrazyl) free radical-scavenging ability assay, that detects the HAT and SET mechanisms, and a FRAP (ferric reducing antioxidant power) assay, that prefers the […] mechanism. The antioxidant powers of 2–5 were compared to standard antioxidants, such as the water-soluble synthetic analogue of vitamin E (Trolox) and ascorbic acid (vitamin C).
The free radical scavenging activity of […] was measured by the DPPH assay. Briefly, 100 μl of DPPH solution (0.2 mg/mL in ethanol) was added to 100 μL of the tested compound concentrations (25, 75, 150, and 200 μg/mL, respectively). Trolox, at increasing concentrations (1–50 μg/mL), was used as a standard. After 20 min of incubation at room temperature, the absorbances of the solutions were measured at 515 nm. The lower the absorbance, the higher the free radical scavenging activity of the compound. The activity of each compound was determined by comparing its absorbance with that of the standard.
The ability of the compounds to scavenge the DPPH radical was calculated by the following formula:DPPH scavenging effect (%) = [(Xcontrol − Xcompound/Xcontrol) × 100], where Xcontrol is the absorbance of the control and Xcompound is the absorbance in the presence of TZD-TSCs preparations.

[6] = Ferric-reducing antioxidant power (FRAP) assay
From the text: as §6
Each compound concentration (25, 75, 150, and 200 μg/mL, respectively) was dissolved in Milli-Q water and mixed with an equal volume of 0.2 M sodium phosphate buffer (pH 6.6) and 1% potassium ferricyanide. The mixture was incubated for 30 min at 37 °C. Thereafter, 10% trichloroacetic acid (w/v) was added and the mixture was centrifuged at 1000 g for 5 min. One mL of the upper layer was mixed with an equal volume of Milli-Q water and 0.1% ferric chloride. The absorbance was read at 700 nm using an EL800 Universal Microplate Reader (BioTek Instruments, Winooski, VT, USA). Ascorbic acid (0–150 μg/mL) was used as a positive control.

CEM cells = test system: CEM cells; design: method as in PMID 34006099; settings: read-out: IC50, antiproliferative effects against CEM cells; cited from earlier work
PPARγ = test system: PPARγ; design: method as in PMID 34006099; settings: cited from earlier work
HDAC4 = test system: HDAC4; design: method as in PMID 34006099; settings: cited from earlier work

SMILES | IC50 (T98G cells) | IC50 (HepG2 cells) | IC50 (HT29 cells [1]) | SI (selectivity index) (T98G cells) | SI (selectivity index) (HepG2 cells) | SI (selectivity index) (HT29 cells [1]) | IC50 (CCD 841 CoTr cells [2]) | NO production, [NO2^−] (CCD 841 CoTr cells [3]) | NO production, [NO2^−] (HT29 cells [4]; HT29, 25 μg/mL) | DPPH reduction value corresponding to concentration of Trolox ([5]; compound at 25 μg/mL) | DPPH reduction value corresponding to concentration of Trolox ([5]; compound at 75 μg/mL) | DPPH reduction value corresponding to concentration of Trolox ([5]; compound at 150 μg/mL) | DPPH reduction value corresponding to concentration of Trolox ([5]; compound at 200 μg/mL) | FRAP reduction value corresponding to concentration of ascorbic acid ([6]; compound at 25 μg/mL) | FRAP reduction value corresponding to concentration of ascorbic acid ([6]; compound at 75 μg/mL) | FRAP reduction value corresponding to concentration of ascorbic acid ([6]; compound at 150 μg/mL) | FRAP reduction value corresponding to concentration of ascorbic acid ([6]; compound at 200 μg/mL) | also measured
COc1cc([C@@H]2c3cc4c(cc3[C@@H](O[C@@H]3O[C@@H]5CO[C@@H](C)O[C@H]5[C@H](O)[C@H]3O)[C@H]3COC(=O)[C@H]23)OCO4)cc(OC)c1O [Etoposide, reference compound] | > 160 µM | 61.9 ± 2.97 µM | 161 ± 8.51 µM | – | – | – | – | – | – | – | – | – | – | – | – | – | – | –
O=C(C=C1SC(=O)NC1=O)Oc1cccc(C=NNC(=S)Nc2ccccc2Cl)c1 [TZD–TSC 4] | 42.4 ± 2.23 µM | 20.1 ± 1.19 µM | 117 ± 9.37 µM | 2.06 | 4.34 | 0.75 | 87.3 ± 5.06 µM | 0.639 µM | 0.558 µM | 2.834 µg/mL | 6.381 µg/mL | 13.982 µg/mL | 17.638 µg/mL | 1.62 µg/mL | 5.95 µg/mL | 4.05 µg/mL | 5.41 µg/mL | –
O=C(C=C1SC(=O)NC1=O)Oc1ccc(C=NNC(=S)Nc2ccc(Cl)cc2Cl)cc1 [TZD–TSC 5] | 93.6 ± 3.45 µM | 13.9 ± 0.59 µM | 119 ± 10.7 µM | 0.79 | 5.35 | 0.62 | 74.2 ± 2.3 µM | 0.272 µM | ~ 0.272 μM | 0.768 µg/mL | 2.689 µg/mL | 9.964 µg/mL | 15.177 µg/mL | 2.70 µg/mL | 2.43 µg/mL | 4.59 µg/mL | 9.19 µg/mL | NO production, [NO2^−] (HT29 cells [4]; HT29, 200 μg/mL): ~ 0.272 μM
O=C(COc1ccc2cc(/C=C3/SC(=O)NC3=O)ccc2c1)Nc1c(F)cc(F)cc1Br [compound 1] | – | – | – | – | – | – | – | – | – | – | – | – | – | – | – | – | – | IC50 (CEM cells): 9.6 µM; Activity toward PPARγ (PPARγ): low micromolar concentration; Activity toward HDAC4 (HDAC4): low micromolar concentration
